Measurements as given in PMC13172357 (Nature Communications, 2026).

Legend:
USP7 [1] = biological target: T1, USP7 (Homo sapiens, UniProt Q93009); assay: PROTAC rescue experiments, Western blot, Panc89 and Ma-Mel-47 cells; assay type: cell-based; conditions: 2 h pretreatment (MLN4924 500 nM, CFZ 250 nM, NK249 10 µM), then 1 µM NK250 or NK266 for 20 h
T1 construct: allowed the analysis of endogenous USP7 degradation in both cell lines; endogenous in cells; host or cells: Panc89 (PDAC) and Ma-Mel-47 (melanoma) cells
Protocol: Cells were treated with proteasome inhibitor Carfilzomib (CFZ, 250 nM), NEDDylation Inhibitor MLN4924 (500 nM) or VHL inhibitor NK249 (10 µM). After 2 h, PROTAC (1 µM) was added. Cells were analyzed after 20 h.

[2] = biological target: T2, human USP7 full length protein (Homo sapiens, UniProt Q93009); assay: USP7 inhibition assay (Ubiquitin-Rhodamine110Gly cleavage); assay type: biochemical; conditions: Ub-RhoG cleavage, read-out: IC50 (half-maximal inhibition)
T2 construct: human USP7 full length protein
Protocol: USP7 inhibitors in DMSO were diluted in UbR buffer (40 mM Tris-HCl pH 8, 150 mM NaCl, 1 mM TCEP, 0.1 mg/mL BSA, 0.01% Tween20) to a concentration of 80 μM (4x). This stock was then further diluted in an 11-times serial dilution in UbR buffer containing 4% DMSO (4x). To this was added the same volume of human USP7 full length protein[59] […] The assay was initiated upon addition of 10 μL per well of Ubiquitin-Rhodamine110Gly (Ub-RhoG) (100 nM in UbR buffer, 2x). […] Normalization was carried out using samples featuring either no inhibitor or no enzyme as respective controls. […] Slopes of fluorescence over time curves were determined with Microsoft Excel through linear regression using the first 15 min of each measurement.

[3] = tested on: Ma-Mel-47 USP7 K.O. cells; assay: Medium color switch (images), Ma-Mel-47 USP7 K.O. cells; assay type: cell-based, human; conditions: Ma-Mel-47 USP7-KO, 72 h, 5 µM NK192, 10 µM FT671, 1 µM NK266
Panc89 cells = assay: Confluence measurement (cell growth), Panc89; assay type: cell-based, human; conditions: Panc89, 1-10 µM, 72 h, 25 mM or 5 mM D-glucose
[4] = biological target: T3, NanoLuc-USP7 and HaloTag-VHL (Homo sapiens, UniProt P40337+Q93009); assay: Cellular ternary complex formation assay (NanoBRET), HEK293T cells; assay type: cell-based; conditions: for Ternary complex induction (in words): NanoBRET
T3 construct: expressed in transfected cells; host or cells: HEK293T, transient transfection (FuGENE HD)
Protocol: The assay was performed as described step-by-step elsewhere. USP7 (NanoLuc-USP7) and VHL (HaloTag-VHL) were cloned in frame with N-terminal NanoLuc or HaloTag, respectively. For transfections, HEK293T cells were diluted in Opti-MEM medium without phenol red (Life Technologies) to 4×10^5 cells/mL and 9 µL were pipetted into each well of a white 384-well plate (Greiner 781207). 1 mL transfection mix was prepared containing 30 µL FuGENE HD (Promega, E2312) and 8 µL of each plasmid, incubated 20 min at RT and 1 µL were pipetted into each well leading to the total assay volume of 10 µL. […] 2 h prior to BRET measurements, the compounds were titrated to the cells using an Echo acoustic dispenser and the cells were incubated further at 37 °C and 5% CO2 to allow complex formation. NanoBRET Nano-Glo substrate and Extracellular NanoLuc Inhibitor (Promega, N2540) were then added as per the manufacturer’s protocol, and filtered luminescence was recorded on a PHERAstar FSX plate reader (BMG Labtech) equipped with a luminescence filter pair (donor: 450 nm BP filter; acceptor: 610 nm LP filter). Data were analyzed using GraphPad Prism 10 software.

HiBiT-USP7 = HiBiT-USP7 (Homo sapiens, UniProt Q93009); assay: HiBiT USP7 degradation assay, MV4-11 cells; assay type: cell-based; conditions: MV4-11 HiBiT-USP7, 6 h and 24 h
Protocol: HiBiT-USP7 construct was cloned by extraction of USP7 fragment from plasmid pQHA-USP7 WT puroR (Addgene #46753) using appropriate restriction sites. The USP7 fragment was then ligated into the pRRL-PGK-HiBiT entry vector to generate the plasmid.
Lentiviral infection was used to generate stable a MV4-11 HiBiT cell line. Lentivirus was produced using plasmids psPAX2, pMD2.G, and HiBiT-USP7 plasmid in HEK293 cells. MV4-11 cells were infected with filtered virus supernatant and selected after 48 h of infection for the generation of the stable MV4-11^HiBiT-USP7 cell line.
The assay was performed as described previously. Briefly, MV4-11^HiBiT-USP7 cells were seeded and treated with compounds for the indicated time. Nano-Glo HiBiT Lytic Detection System (Promega) was used for the assay and luminescence was measured on a Tecan Spark microplate reader (Tecan). DC50 values were calculated using the sigmoidal dose-response (four parameters) equation in GraphPad Prism and are given as the concentration where 50% of the total signal was remaining. Dmax values are given as the maximum degradation observed at any concentration.

USP7 [5] = biological target: T1, USP7; assay: USP7 degradation, Western blot densitometry, Ma-Mel-47 cells; assay type: cell-based; conditions: Ma-Mel-47, 5 µM, 24 h, Western blot
Protocol: (§1) The melanoma cell line Ma-Mel-47 (established previously[57] from metastatic lesions from patient tumor tissues after written informed consent) and the PDAC cell line Panc89 (RRID: CVCL_4056, also referenced as T3M-4[58]) were cultured in a humidified incubator with 5% CO2 at 37 °C in RPMI1640 (Ma-Mel-47) / DMEM (Panc89) medium containing 10% (v/v) fetal calf serum (FCS) and penicillin/streptomycin (all Gibco, Thermo Fisher Scientific). Studies on human material were approved by the institutional review board. […] Testing for mycoplasma was performed by PCR monthly. To confirm cell identity, STR analysis was performed by the Microsynth Seqlab GmbH.
(§2) To prepare samples for Western blot analysis, cells were seeded in 6-well dishes the day before treatment to adhere at 70–80% confluency.
(§3) Cell pellets of all PDAC samples were lysed via adding a buffer containing 150 mM NaCl, 50 mM Tris/HCl (pH 7.4), 1% Triton X-100, 10 mM EDTA, 1 mM PMSF, 10 mM orthovanadate, and 1% aprotinin, incubating on ice for 1 h with vortexing every 15 minutes. Lysates were cleared of cell debris by centrifugation at 10,000 ×g at 4 °C for 10 min. […] Lysates were then clarified of cell debris by centrifugation at 13,000 ×g at 4 °C for 15 min. Thereafter, the total protein concentrations were either determined immediately or the protein extracts were stored at −20 or −80 °C. Pellets for samples shown in Fig. 6 and Supplementary Fig. 6 were lysed in 120 µL lysis buffer (50 mM Tris pH 8.0, 150 mM NaCl, 1% (v/v) IGEPAL, 0.5% (w/v) Na-deoxycholate, 0.1% (w/v) SDS) supplemented with 1x EDTA-free inhibitor protease cocktail (cOmplete, Roche) for 15 min at 4 °C. 0.2 µL Turbonuclease (Sigma Aldrich) and 5 mM MgCl2 were then added and lysates were incubated for 15 min at 4 °C. Cell debris was separated by centrifugation at 20,817 ×g for 15 min at 4 °C.
(§4) Protein concentrations of cell lysates were measured using the Pierce BCA Protein Assay (Thermo Fisher Scientific) or the Quick Start Bradford Protein Assay (Bio-Rad), following the manufacturers’ protocols. Measurements were recorded on Tecan Spark or Tecan Infinite M200 plate readers. Lysates were kept on ice throughout the entire process.
(§5) To separate proteins via SDS-PAGE, 10-20 µg of protein in lysis buffer was diluted with SDS-PAGE loading buffer (for most blots containing DTT or 2-mercaptoethanol) and denatured at 95 °C for 5 min. Protein separation was conducted at 95–110 V using the Mini-PROTEAN electrophoresis system (Bio-Rad). Proteins were then transferred to PVDF or nitrocellulose membranes using the Trans-Blot Turbo system (Bio-Rad) with the Trans-Blot Turbo RTA Kit for PVDF membranes. Prior to transfer, membranes were activated by soaking in 100% ethanol (for PVDF) or distilled water (for nitrocellulose) and proteins were transferred using the Mixed MW or the standard (1.0 A, 25 V, 30 min) protocol.
(§6) After transfer, membranes were blocked in 5% (w/v) milk/TBS-T for 1 h and then washed three times for 10 min with TBS-T. They were incubated overnight at 4 °C with the primary antibody in 5% (w/v) milk/TBS-T or 1% (w/v) BSA/TBS-T. Membranes were then washed three times for 10 min with TBS-T and incubated with horseradish peroxidase (HRP)-conjugated secondary antibodies in a solution of 5% (w/v) BSA/TBS-T or 1% (w/v) milk/TBS-T for 1 h at room temperature. PBS-T was used for blots shown in Fig. 6 and Supplementary Fig. 6.
(§7) Membranes were incubated with Clarity Western ECL substrate (Bio-Rad) for PDAC samples or Pierce ECL Western Blotting-Substrate (Thermo Fisher Scientific) for melanoma. Chemiluminescent signals were detected with a ChemiDoc Imaging System (Bio-Rad) for PDAC samples or with a ECL Chemostar Imager (Intas Science Imaging) for melanoma samples.
(§8) Densitometric quantification of band intensities for Fig. 2c, d was performed using the ImageJ software.

USP7 [6] = biological target: T1, USP7; assay: USP7 degradation, Western blot densitometry, Panc89 cells; assay type: cell-based; conditions: Panc89, 5 µM, 24 h, Western blot
Protocol: as §1, §2, §3, §4, §5, §6, §7, §8

T2 sequence (Q93009 whole entry): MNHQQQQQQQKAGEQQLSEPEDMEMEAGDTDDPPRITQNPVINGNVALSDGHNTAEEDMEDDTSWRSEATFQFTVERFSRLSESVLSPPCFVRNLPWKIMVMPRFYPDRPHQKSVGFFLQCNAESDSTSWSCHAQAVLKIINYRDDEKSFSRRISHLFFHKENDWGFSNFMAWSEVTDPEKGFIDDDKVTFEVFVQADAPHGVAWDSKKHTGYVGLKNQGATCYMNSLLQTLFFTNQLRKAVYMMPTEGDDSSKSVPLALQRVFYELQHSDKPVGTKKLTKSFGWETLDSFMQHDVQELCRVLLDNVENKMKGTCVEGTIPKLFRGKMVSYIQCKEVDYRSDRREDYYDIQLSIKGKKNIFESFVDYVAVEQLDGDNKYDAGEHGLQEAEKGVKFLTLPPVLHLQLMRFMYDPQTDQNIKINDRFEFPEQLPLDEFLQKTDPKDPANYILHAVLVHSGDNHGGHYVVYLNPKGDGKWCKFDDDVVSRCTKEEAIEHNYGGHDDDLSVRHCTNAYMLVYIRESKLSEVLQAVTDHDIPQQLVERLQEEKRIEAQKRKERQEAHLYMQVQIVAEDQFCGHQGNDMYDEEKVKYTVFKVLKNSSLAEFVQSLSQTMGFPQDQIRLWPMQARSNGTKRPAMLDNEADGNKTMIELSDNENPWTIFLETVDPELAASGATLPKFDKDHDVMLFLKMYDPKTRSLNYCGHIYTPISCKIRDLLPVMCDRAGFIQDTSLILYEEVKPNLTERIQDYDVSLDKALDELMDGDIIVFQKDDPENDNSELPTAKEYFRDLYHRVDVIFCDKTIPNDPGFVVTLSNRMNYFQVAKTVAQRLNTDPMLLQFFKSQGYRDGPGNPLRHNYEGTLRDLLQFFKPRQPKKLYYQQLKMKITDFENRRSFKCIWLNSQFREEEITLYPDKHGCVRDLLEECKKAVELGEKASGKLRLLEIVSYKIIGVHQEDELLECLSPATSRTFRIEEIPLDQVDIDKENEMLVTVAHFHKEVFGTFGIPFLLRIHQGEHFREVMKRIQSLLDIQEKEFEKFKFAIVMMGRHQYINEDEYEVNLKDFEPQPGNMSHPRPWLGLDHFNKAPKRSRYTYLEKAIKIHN
T3 sequence (Q93009 whole entry): as above
T3 sequence (P40337 whole entry): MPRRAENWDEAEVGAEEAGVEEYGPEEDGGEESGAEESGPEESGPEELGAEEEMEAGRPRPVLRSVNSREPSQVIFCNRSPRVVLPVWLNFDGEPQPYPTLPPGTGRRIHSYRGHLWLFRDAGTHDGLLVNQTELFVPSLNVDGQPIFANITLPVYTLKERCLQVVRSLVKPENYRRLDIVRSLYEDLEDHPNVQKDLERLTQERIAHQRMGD
T3 sequence (Q15370 whole entry partner): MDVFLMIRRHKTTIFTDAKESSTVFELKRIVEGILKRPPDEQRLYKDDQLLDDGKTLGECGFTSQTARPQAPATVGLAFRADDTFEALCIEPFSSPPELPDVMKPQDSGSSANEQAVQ
T3 sequence (Q15369 whole entry partner): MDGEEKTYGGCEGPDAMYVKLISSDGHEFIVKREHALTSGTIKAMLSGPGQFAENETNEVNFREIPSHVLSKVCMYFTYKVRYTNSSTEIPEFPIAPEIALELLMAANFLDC
T1 sequence (Q93009 whole entry): as the sequence (Q93009 whole entry) above
HiBiT-USP7, sequence (Q93009 whole entry, the tested form may be a part): as the sequence (Q93009 whole entry) above

With `NS(=O)(=O)OC[C@@H]1C[C@@H](n2ccc3c(N[C@H]4CCc5ccccc54)ncnc32)C[C@@H]1O` [MLN4924, Pevonedistat] the “Rescue of PROTAC-mediated USP7 degradation (in words)” value (shortened to “Rescue”) (USP7 [1]) was “rescued PROTAC-mediated degradation of USP7”.
With `CC(CC(=O)N1CCC(O)(Cn2cnc3c(cnn3-c3ccc(N4CCN(C(=O)CCOCCOCCOCCNC(=O)CCCCC5SCC6NC(=O)NC65)CC4)cc3)c2=O)CC1)c1ccccc1` (stereo not shown) [NK264] the IC50 [2] was 15 nM.
With `O=C(C[C@@H](C(F)F)n1ccc(F)n1)N1CCC(O)(Cn2cnc3c(cnn3-c3ccc(F)cc3)c2=O)CC1` [FT671, reference compound] the “Change of media color (in words)” value [3] was “the same change of media color”, the IC50 [2] was 13 nM and the “Cell growth (in words)” value (Panc89 cells) was “not affected”.
In the case of `CN1CCN(CCC(=O)Nc2ccc3c(=O)n(CC4(O)CCN(C(=O)[C@@H](CCCNC(=O)c5ccc6c(Cl)c7c(nc6c5)CCCC7)Cc5ccccc5)CC4)cnc3c2)CC1` [XL177A], the IC50 [2] is reported as 91 nM.
`CC(=O)c1cc([N+](=O)[O-])c(Sc2cccc(Cl)c2Cl)s1` [P5091] gave an IC50 [2] of 2070 nM.
For `Cc1ncsc1-c1ccc(CNC(=O)[C@@H]2C[C@@H](O)CN2C(=O)[C@@H](NC(=O)C2(C#N)CC2)C(C)(C)C)cc1` [VH298, reference compound], the “Ternary complex induction (in words)” value [4] was “neither the negative control NK245 nor the VHL ligand VH298 induced a ternary complex”.
For `CC(C)C[C@H](NC(=O)[C@H](CCc1ccccc1)NC(=O)CN1CCOCC1)C(=O)N[C@@H](Cc1ccccc1)C(=O)N[C@@H](CC(C)C)C(=O)[C@@]1(C)CO1` [carfilzomib, Carfilzomib], the “Rescue” value (USP7 [1]) was “rescued PROTAC-mediated degradation of USP7”.
With `Cc1ncsc1-c1ccc(CNC(=O)[C@@H]2C[C@@H](O)CN2C(=O)[C@@H](NC(=O)C23C4C5C2C2C3C4C52C(=O)N2CCC(C3CCN(c4ccc(-n5ncc6c(=O)n(CC7(O)CCN(C(=O)C[C@@H](C)c8ccccc8)CC7)cnc65)cc4)CC3)CC2)C(C)(C)C)cc1` (stereo partly shown) [NK233] the “HiBiT-USP7 levels (in words)” value (HiBiT-USP7) was “lower potency”, the “USP7 degradation (in words)” value (USP7 [5]) was “robust degradation of USP7” and the “USP7 degradation (in words)” value (USP7 [6]) was “effectively degraded USP7”. The “Ternary complex induction (in words)” value [4] was “did not increase the BRET signal to the same level”.
In the case of `Cc1ncsc1-c1ccc([C@H](C)NC(=O)[C@@H]2C[C@@H](O)CN2C(=O)[C@@H](NC(=O)C2(F)CC2)C(C)(C)C)cc1` [NK249], the “Rescue” value (USP7 [1]) is reported as “rescued PROTAC-mediated degradation of USP7”.
In the case of `Cc1ncsc1-c1ccc(CNC(=O)C2CC(O)CN2C(=O)C(NC(=O)C2CCC(C(=O)N3CCN(c4ccc(-n5ncc6c(=O)n(CC7(O)CCN(C(=O)CC(C)c8ccccc8)CC7)cnc65)cc4)CC3)CC2)C(C)(C)C)cc1` (stereo not shown) [NK225], the “HiBiT-USP7 levels (in words)” value (HiBiT-USP7) is reported as “lower potency”, the “USP7 degradation (in words)” value (USP7 [5]) is reported as “robust degradation of USP7” and the “USP7 degradation (in words)” value (USP7 [6]) is reported as “effectively degraded USP7”. The EC50 ([4]; compound 2 h prior BRET measurement, read-out: EC50 (half-maximal ternary complex formation concentration)) was 144 nM.
In the case of `CCc1c(-c2ccc3[nH]ncc3c2)cnc(N)c1-c1ccc(O)cc1` [GNE-6640], the IC50 [2] is reported as 545 nM.
